Data taken from PubChem BioAssay (NCI).
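In this assay, cells in 96-well plates receive the compound at five concentrations for 48 hours. Endpoints are linearly interpolated between the surrounding concentrations. TGI: concentration producing complete growth inhibition.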

Tests used:
Test in all cases: NCI anticancer screen, dose series, 48 h
786-0 renal = system: 786-0 renal
TK-10 renal = system: TK-10 renal
LOX IMVI melanoma = system: LOX IMVI melanoma
HS 578T breast = system: HS 578T breast
RPMI-8226 leukemia = system: RPMI-8226 leukemia
SK-OV-3 ovarian = system: SK-OV-3 ovarian
PC-3 prostate = system: PC-3 prostate
SF-268 CNS = system: SF-268 CNS
SK-MEL-28 melanoma = system: SK-MEL-28 melanoma
KM12 colon = system: KM12 colon
SF-295 CNS = system: SF-295 CNS
COLO 205 colon = system: COLO 205 colon
MCF7 breast = system: MCF7 breast
ACHN renal = system: ACHN renal
SK-MEL-5 melanoma = system: SK-MEL-5 melanoma
HT29 colon = system: HT29 colon
IGROV1 ovarian = system: IGROV1 ovarian
HCT-116 colon = system: HCT-116 colon
HOP-92 NSCLC = system: HOP-92 NSCLC
SF-539 CNS = system: SF-539 CNS
CCRF-CEM leukemia = system: CCRF-CEM leukemia
NCI-H460 lung = system: NCI-H460 lung
T-47D breast = system: T-47D breast
UACC-62 melanoma = system: UACC-62 melanoma
UO-31 renal = system: UO-31 renal
MALME-3M melanoma = system: MALME-3M melanoma
OVCAR-8 ovarian = system: OVCAR-8 ovarian
NCI/ADR-RES ovarian = system: NCI/ADR-RES ovarian
A498 renal = system: A498 renal
SK-MEL-2 melanoma = system: SK-MEL-2 melanoma
UACC-257 melanoma = system: UACC-257 melanoma
NCI-H226 lung = system: NCI-H226 lung
DU-145 prostate = system: DU-145 prostate
BT-549 breast = system: BT-549 breast
SNB-19 CNS = system: SNB-19 CNS
HOP-62 NSCLC = system: HOP-62 NSCLC
MDA-MB-435 = system: MDA-MB-435
SW-620 colon = system: SW-620 colon
M14 melanoma = system: M14 melanoma
K-562 leukemia = system: K-562 leukemia
HCT-15 colon = system: HCT-15 colon
SNB-75 CNS = system: SNB-75 CNS
OVCAR-5 ovarian = system: OVCAR-5 ovarian
A549 NSCLC = system: A549 NSCLC
SN12C renal = system: SN12C renal
MDA-N = system: MDA-N
RXF 393 renal = system: RXF 393 renal
MDA-MB-231 breast = system: MDA-MB-231 breast
EKVX NSCLC = system: EKVX NSCLC
MOLT-4 leukemia = system: MOLT-4 leukemia
OVCAR-3 ovarian = system: OVCAR-3 ovarian
CAKI-1 renal = system: CAKI-1 renal
OVCAR-4 ovarian = system: OVCAR-4 ovarian
U251 CNS = system: U251 CNS
HL-60(TB) leukemia = system: HL-60(TB) leukemia
NCI-H23 lung = system: NCI-H23 lung
HCC-2998 colon = system: HCC-2998 colon
NCI-H522 lung = system: NCI-H522 lung

What does the source list for `CCOC(=O)c1nc2ccc(C(F)(F)F)cc2nc1Oc1ccc(OC)cc1`?
TGI (786-0 renal): > 100 µM; TGI (TK-10 renal): > 100 µM; TGI (LOX IMVI melanoma): > 100 µM; TGI (HS 578T breast): > 100 µM; TGI (RPMI-8226 leukemia): > 100 µM; TGI (SK-OV-3 ovarian): > 100 µM; TGI (PC-3 prostate): > 100 µM; TGI (SF-268 CNS): > 100 µM; TGI (SK-MEL-28 melanoma): > 100 µM; TGI (KM12 colon): > 100 µM; TGI (SF-295 CNS): > 100 µM; TGI (COLO 205 colon): > 100 µM; TGI (MCF7 breast): > 100 µM; TGI (ACHN renal): > 100 µM; TGI (SK-MEL-5 melanoma): > 100 µM; TGI (HT29 colon): > 100 µM; TGI (IGROV1 ovarian): > 100 µM; TGI (HCT-116 colon): > 100 µM; TGI (HOP-92 NSCLC): > 100 µM; TGI (SF-539 CNS): > 100 µM; TGI (CCRF-CEM leukemia): > 100 µM; TGI (NCI-H460 lung): > 100 µM; TGI (T-47D breast): > 100 µM; TGI (UACC-62 melanoma): > 100 µM; TGI (UO-31 renal): > 100 µM; TGI (MALME-3M melanoma): > 100 µM; TGI (OVCAR-8 ovarian): > 100 µM; TGI (NCI/ADR-RES ovarian): > 100 µM; TGI (A498 renal): > 100 µM; TGI (SK-MEL-2 melanoma): > 100 µM; TGI (UACC-257 melanoma): > 100 µM; TGI (NCI-H226 lung): > 100 µM; TGI (DU-145 prostate): > 100 µM; TGI (BT-549 breast): > 100 µM; TGI (SNB-19 CNS): > 100 µM; TGI (HOP-62 NSCLC): > 100 µM; TGI (MDA-MB-435): > 100 µM; TGI (SW-620 colon): > 100 µM; TGI (M14 melanoma): > 100 µM; TGI (K-562 leukemia): > 100 µM; TGI (HCT-15 colon): > 100 µM; TGI (SNB-75 CNS): > 100 µM; TGI (OVCAR-5 ovarian): > 100 µM; TGI (A549 NSCLC): > 100 µM; TGI (SN12C renal): > 100 µM; TGI (MDA-N): > 100 µM; TGI (RXF 393 renal): > 100 µM; TGI (MDA-MB-231 breast): > 100 µM; TGI (EKVX NSCLC): > 100 µM; TGI (MOLT-4 leukemia): > 100 µM; TGI (OVCAR-3 ovarian): > 100 µM; TGI (CAKI-1 renal): > 100 µM; TGI (OVCAR-4 ovarian): > 100 µM; TGI (U251 CNS): > 100 µM

Which results are given for `CC1(C)CC2=NO[Se]3=C2C(=NO3)C1`?
TGI (786-0 renal): 12.4 µM; TGI (TK-10 renal): 19.5 µM; TGI (LOX IMVI melanoma): 9.39 µM; TGI (HS 578T breast): 33.1 µM; TGI (RPMI-8226 leukemia): 18.5 µM; TGI (SK-OV-3 ovarian): 13.1 µM; TGI (PC-3 prostate): 3.24 µM; TGI (SF-268 CNS): 56.3 µM; TGI (SK-MEL-28 melanoma): 16.6 µM; TGI (KM12 colon): 13.8 µM; TGI (HL-60(TB) leukemia): 5.08 µM; TGI (SF-295 CNS): 7.6 µM; TGI (COLO 205 colon): 3.73 µM; TGI (MCF7 breast): 14.2 µM; TGI (ACHN renal): 3.61 µM; TGI (SK-MEL-5 melanoma): 3.28 µM; TGI (HT29 colon): 10.1 µM; TGI (IGROV1 ovarian): 6.43 µM; TGI (HCT-116 colon): 10.4 µM; TGI (NCI-H23 lung): 5.65 µM; TGI (HOP-92 NSCLC): 8.21 µM; TGI (SF-539 CNS): 5.75 µM; TGI (CCRF-CEM leukemia): 30.4 µM; TGI (NCI-H460 lung): 4.05 µM; TGI (T-47D breast): 24.7 µM; TGI (UACC-62 melanoma): 6.63 µM; TGI (HCC-2998 colon): 16.8 µM; TGI (UO-31 renal): 8.73 µM; TGI (OVCAR-8 ovarian): 16.4 µM; TGI (A498 renal): 10.4 µM; TGI (SK-MEL-2 melanoma): 24.8 µM; TGI (UACC-257 melanoma): 5.64 µM; TGI (NCI-H226 lung): 11.6 µM; TGI (DU-145 prostate): 10.4 µM; TGI (BT-549 breast): 7.28 µM; TGI (SNB-19 CNS): 15.3 µM; TGI (HOP-62 NSCLC): 10.8 µM; TGI (MDA-MB-435): 15.5 µM; TGI (SW-620 colon): 12.3 µM; TGI (M14 melanoma): 6.25 µM; TGI (K-562 leukemia): 12.4 µM; TGI (HCT-15 colon): 11.5 µM; TGI (SNB-75 CNS): 6.96 µM; TGI (OVCAR-5 ovarian): 20.5 µM; TGI (A549 NSCLC): 14.2 µM; TGI (SN12C renal): 13 µM; TGI (MDA-N): 4.22 µM; TGI (NCI-H522 lung): 5.46 µM; TGI (RXF 393 renal): 9.18 µM; TGI (MDA-MB-231 breast): 16.4 µM; TGI (EKVX NSCLC): 9.68 µM; TGI (MOLT-4 leukemia): 9.41 µM; TGI (OVCAR-3 ovarian): 5.37 µM; TGI (CAKI-1 renal): 11.4 µM; TGI (OVCAR-4 ovarian): 21.7 µM; TGI (U251 CNS): 18.7 µM
